ChEMBL document CHEMBL3137667, “[Drug-induced liver injury; fourteenth updated edition of the bibliographic database of liver injuries and related drugs]” (Gastroenterol Clin Biol, 2004)

How the values were obtained:
[1] = human
[2] = human; remark: listed apart in the source
[3] = human; remark: listed apart in the source
[4] = Comments (NB not yet translated). [column 'COMMENTAIRES' in source]; conditions: human
[5] = Times to onset, minimal and maximal, observed in the indexed observations. [column 'DELAI' in source]; conditions: human
[6] = human, serum
[7] = Highest frequency of moderate liver toxicity observed during clinical trials, expressed as a percentage. [column '% BIOL' in source]; conditions: human
[8] = human; remark: listed apart in the source
[9] = human, serum; remark: listed apart in the source
[10] = human; remark: listed apart in the source
[11] = human; remark: listed apart in the source
[12] = human; remark: listed apart in the source
[13] = human, serum, 4383 h
[14] = Highest frequency of acute liver toxicity observed during clinical trials, expressed as a percentage. [column '% AIGUE' in source]; conditions: human
[15] = human; remark: listed apart in the source
[16] = Presence of at least one case with successful reintroduction. [column 'REINT' in source]; conditions: human
[17] = human; remark: listed apart in the source
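Wherever Hepatotoxicity (association with vascular disease) is given: count of indexed literature references reporting vascular liver injury in humans, e.g. peliosis hepatitis, hepatic veno-occlusive disease or Budd-Chiari syndrome.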
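Wherever Hepatotoxicity (benign tumour) is given: value is a count of indexed literature references citing a benign tumour confirmed by histopathology.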
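Wherever Hepatotoxicity (choleostasis) is given: human cholestatic liver injury, shown by histopathology or by peak ALT or AST elevation over alkaline phosphatase ratio below 2, value counts indexed literature reports.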
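Wherever Hepatotoxicity (chronic liver disease) is given: chronic liver injury confirmed by histopathology or persistently raised serum aminotransferase activity beyond 6 months, value given as the count of indexed literature references.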
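Wherever Hepatotoxicity (cirrhosis) is given: value is a count of indexed literature references reporting cirrhosis confirmed by histopathology.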
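Wherever Hepatotoxicity (cytolytic) is given: human cytolytic liver injury, shown by histopathology or by a ratio above 5 of peak ALT or AST elevation to alkaline phosphatase elevation, value counts indexed references.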
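Wherever Hepatotoxicity (granulomatous hepatitis) is given: value is a count of indexed literature references reporting granulomatous liver disease confirmed by histopathology.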
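Wherever Hepatotoxicity (malignant tumour) is given: malignant tumour confirmed by histopathology, value gives the count of indexed literature references reporting it.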
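Wherever Hepatotoxicity (severe hepatitis) is given: human clinical data: severe hepatitis, meaning potentially life-threatening liver failure or clinically observed cases, the value counts how many indexed literature references report it.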
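Wherever Hepatotoxicity (steatosis) is given: steatosis confirmed by histopathology, value is the count of indexed references.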

| Molecule | Hepatotoxicity (granulomatous hepatitis) [1] | Hepatotoxicity (cytolytic) [2] | Hepatotoxicity (cirrhosis) [3] | Hepatotoxicity (comment) [4] | Hepatotoxicity (time to onset) [5] | Hepatotoxicity (acute) [6] | Hepatotoxicity (moderate) [7] [%] | Hepatotoxicity (malignant tumour) [8] | Hepatotoxicity (moderate) [9] | Hepatotoxicity (association with vascular disease) [10] | Hepatotoxicity (choleostasis) [11] | Hepatotoxicity (benign tumour) [12] | Hepatotoxicity (chronic liver disease) [13] | Hepatotoxicity (acute) [14] [%] | Hepatotoxicity (steatosis) [15] | Hepatotoxicity (successful reintroduction) [16] | Hepatotoxicity (severe hepatitis) [17] | Hepatotoxicity (moderate) ([7]; Liver) [%] | Hepatotoxicity (acute) ([14]; Liver) [%] | Hepatotoxicity (severe hepatitis) ([17]; Liver) |
| --- | --- | --- | --- | --- | --- | --- | --- | --- | --- | --- | --- | --- | --- | --- | --- | --- | --- | --- | --- | --- |
| CCN(CCCc1ccccc1)CCCc1ccccc1 [ALVERINE] | 0 | 2 | 0 | AC_ANTI-N | 4 days - 40 days | 2 | 0 | 0 | 0 | 0 | 0 | 0 | 0 | 0 | 0 | yes | 0 | – | – | – |
| C[C@]12CCC(=O)C=C1CC[C@@H]1[C@@H]2CC[C@@]2(C)[C@H]1CC[C@]2(C)O [METHYLTESTOSTERONE] | 0 | 2 | 2 | ANGIOSARCOME CHOLESTASE_PROLONGEE CHOLANGITE #CBP PELIOSE | 1 week - 24 years | 30 | 32 | 10 | 4 | 4 | 21 | 6 | 0 | 0 | 0 | yes | 1 | – | – | – |
| STREPTOKINASE | 0 | 5 | 0 | RUPTURE_HEPATIQUE | 1 day - 1 week | 9 | 75 | 0 | 12 | 0 | 3 | 0 | 0 | 0 | 0 | yes | 0 | – | – | – |
| O=C(N[C@H](CO)[C@H](O)c1ccc([N+](=O)[O-])cc1)C(Cl)Cl [CHLORAMPHENICOL] | 0 | 2 | 0 | RC/COTRIMOXAZOLE | 1 month - 2 months | 14 | 46.2 | 0 | 1 | 0 | 1 | 0 | 0 | 7.7 | 1 | yes | 0 | – | – | – |
| Nc1cc([As]2[As](c3ccc(O)c(N)c3)[As](c3ccc(O)c(N)c3)[As](c3ccc(O)c(N)c3)[As]2c2ccc(O)c(N)c2)ccc1O.Nc1cc([As]2[As](c3ccc(O)c(N)c3)[As]2c2ccc(O)c(N)c2)ccc1O (centres undefined) | 0 | 1 | 0 | CHOLESTASE_PROLONGEE CHOLANGITE | 1 week - 1 year | 6 | 0 | 0 | 0 | 0 | 1 | 0 | 0 | 0 | 0 | yes | 1 | – | – | – |
| CC(C(=O)O)c1ccc(C(=O)c2ccccc2)s1 (centres undefined) [TIAPROFENIC ACID] | 0 | 2 | 0 | RC/DICLOFENAC | 3 weeks - 2 months | 3 | 3.8 | 0 | 1 | 0 | 2 | 0 | 0 | 0 | 0 | yes | 0 | – | – | – |
| CCN1CCN(C(=O)N[C@@H](C(=O)N[C@@H]2C(=O)N3[C@@H]2SC(C)(C)[C@@H]3C(=O)O)c2ccccc2)C(=O)C1=O [PIPERACILLIN] | 0 | 1 | 0 | CHOLANGITE | 2 weeks | 4 | 25.6 | 0 | 14 | 0 | 3 | 0 | 0 | 0.2 | 0 | yes | 0 | – | – | – |
| Cc1cn([C@H]2C[C@H](N=[N+]=[N-])[C@@H](CO)O2)c(=O)[nH]c1=O [ZIDOVUDINE] | 0 | 22 | 0 | I/INTERFERON/PARACETAMOL REACTIVATION_HVB | 1 week - 8 years | 25 | 44 | 0 | 26 | 0 | 3 | 0 | 0 | 12.5 | 17 | yes | 13 | – | – | – |
| CC(=O)CC(c1ccc([N+](=O)[O-])cc1)c1c(O)c2ccccc2oc1=O (centres undefined) [ACENOCOUMAROL] | 0 | 3 | 0 | RC/PHENPROCOUMON CHOLESTASE_PROLONGEE | 2 days - 5 years | 8 | 0 | 0 | 2 | 0 | 6 | 0 | 1 | 0 | 0 | yes | 0 | – | – | – |
| COCCc1ccc(OCC(O)CNC(C)C)cc1 (centres undefined) [METOPROLOL] | 0 | 1 | 0 | ENCEPHALOPATHIE | 5 days - 17 days | 1 | 32 | 0 | 3 | 0 | 0 | 0 | 0 | 0 | 0 | yes | 0 | – | – | – |
| CC(C)(C)NC(=O)[C@@H]1CN(Cc2cccnc2)CCN1C[C@@H](O)C[C@@H](Cc1ccccc1)C(=O)N[C@H]1c2ccccc2C[C@H]1O.O | 0 | 8 | 0 | REACTIVATION_HVB/HVC LITHIASE | 5 hours - 19 months | 12 | – | 0 | 5 | 0 | 0 | 0 | 0 | – | 3 | yes | – | 8 | 9.1 | 4 |
| CCOC(=O)/C=C(C)/C=C/C=C(C)/C=C/c1c(C)cc(OC)c(C)c1C [ETRETINATE] | 1 | 12 | 1 | I/METHOTREXATE CHOLANGITE | 1 week - 1 year | 20 | 33 | 0 | 31 | 0 | 6 | 0 | 7 | 1.5 | 5 | yes | 2 | – | – | – |
